“And” between values parts separate entries of the source, which are not always exact repeats. Equal values may be shown once. Inconclusive results and toxic doses are left out. Rule for the calls: active = survival T/C of 150% or more; inactive = T/C below 125% in these data.
Tested on: CD2F1 mice, L1210 leukemia ip, survival T/C
Experiment: NCI In Vivo Anticancer Drug Screen. Data for tumor model L1210 Leukemia (intraperitoneal) in CD2F1 (CDF1) mice
Conditions: endpoint: mean survival time, higher = longer survival
Method in brief: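 Each value reflects a quotient of treated over vehicle control outcomes in mice with a transplanted tumor.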

[1] = dose: 100.0 mg/kg/injection, schedule: Q04DX003 (ip), vehicle: saline with Tween-80
[2] = dose: 200.0 mg/kg/injection, schedule: Q04DX003 (ip), vehicle: saline with Tween-80
[3] = dose: 400.0 mg/kg/injection, schedule: Q04DX003 (ip), vehicle: saline with Tween-80
[4] = dose: 50.0 mg/kg/injection, schedule: Q01DX009 (ip), vehicle: Klucel (hydroxypropylcellulose) (HPC)
[5] = dose: 100.0 mg/kg/injection, schedule: Q01DX009 (ip), vehicle: Klucel (hydroxypropylcellulose) (HPC)
[6] = dose: 200.0 mg/kg/injection, schedule: Q01DX009 (ip), vehicle: Klucel (hydroxypropylcellulose) (HPC)

Measured: T/C

O=[N+]([O-])c1ccc(C(O)(c2ccc([N+](=O)[O-])cc2)c2ccc([N+](=O)[O-])cc2)cc1
inactive: dose: 100.0 mg/kg/injection, schedule: Q01DX009 (ip), vehicle: saline with Tween-80 96 % of control | [1] 98 % of control | dose: 200.0 mg/kg/injection, schedule: Q01DX009 (ip), vehicle: saline with Tween-80 95 % of control | [2] 97 % of control | dose: 400.0 mg/kg/injection, schedule: Q01DX009 (ip), vehicle: saline with Tween-80 96 % of control | [3] 97 % of control

CC(C)(CCC(C)(C)NCCCN)NCCCN
inactive: dose: 12.5 mg/kg/injection, schedule: Q01DX009 (ip), vehicle: water 94 % of control | dose: 25.0 mg/kg/injection, schedule: Q01DX009 (ip), vehicle: water 97 % of control | dose: 50.0 mg/kg/injection, schedule: Q01DX009 (ip), vehicle: water 109 % of control

Nc1ccccc1OCCCn1cc(-c2ccc(Cl)c(Cl)c2)c(N)nc1=O
inactive: [4] 94 % of control | [5] 101 % of control | [6] 90 % of control

CCCCCCCCCCCCN(C)C
inactive: dose: 25.0 mg/kg/injection, schedule: Q01DX009 (ip), vehicle: saline with Tween-80 92 % of control | dose: 25.0 mg/kg/injection, schedule: Q04DX003 (ip), vehicle: saline with Tween-80 97 % of control | dose: 50.0 mg/kg/injection, schedule: Q01DX001 (ip), vehicle: saline 96 % of control | dose: 50.0 mg/kg/injection, schedule: Q01DX009 (ip), vehicle: saline with Tween-80 92 % of control | dose: 50.0 mg/kg/injection, schedule: Q04DX003 (ip), vehicle: saline with Tween-80 100 % of control | dose: 100.0 mg/kg/injection, schedule: Q01DX001 (ip), vehicle: saline 100 % of control | [1] 102 % of control

OCC1OC(n2cnc3c(NO)ncnc32)C(O)C1O (stereo unspecified)
inactive: dose: 12.5 mg/kg/injection, schedule: Q01DX009 (ip), vehicle: Klucel (hydroxypropylcellulose) (HPC) 87 % of control and 103 % of control | dose: 25.0 mg/kg/injection, schedule: Q01DX009 (ip), vehicle: Klucel (hydroxypropylcellulose) (HPC) 88 % of control and 104 % of control | [4] 92 % of control and 104 % of control | [5] 92 % of control and 104 % of control | [6] 92 % of control and 104 % of control | dose: 400.0 mg/kg/injection, schedule: Q01DX009 (ip), vehicle: Klucel (hydroxypropylcellulose) (HPC) 95 % of control and 107 % of control

Cc1ccc(S(=O)(=O)NN2C(=O)c3ccccc3C2=O)cc1
inactive: dose: 25.0 mg/kg/injection, schedule: Q04DX002 (ip), vehicle: saline with Tween-80 96 % of control | dose: 50.0 mg/kg/injection, schedule: Q04DX002 (ip), vehicle: saline with Tween-80 96 % of control | dose: 100.0 mg/kg/injection, schedule: Q04DX002 (ip), vehicle: saline with Tween-80 100 % of control | dose: 200.0 mg/kg/injection, schedule: Q04DX002 (ip), vehicle: saline with Tween-80 96 % of control

N=C(N)c1cccc(NC(=O)CCc2ccccc2)c1
inactive: dose: 100.0 mg/kg/injection, schedule: Q01DX001 (ip), vehicle: saline with Tween-80 97 % of control | dose: 200.0 mg/kg/injection, schedule: Q01DX001 (ip), vehicle: saline with Tween-80 93 % of control | dose: 400.0 mg/kg/injection, schedule: Q01DX001 (ip), vehicle: saline with Tween-80 92 % of control

CC(=O)C(C#N)c1c(C)cc(C)cc1C (stereo unspecified)
inactive: dose: 37.5 mg/kg/injection, schedule: Q01DX009 (ip), vehicle: saline 96 % of control | dose: 75.0 mg/kg/injection, schedule: Q01DX009 (ip), vehicle: saline 98 % of control | dose: 150.0 mg/kg/injection, schedule: Q01DX009 (ip), vehicle: saline 96 % of control

O=C1OC(c2ccccc2)(c2ccccc2)c2ccc3ccccc3c21
inactive: [1] 96 % of control | [2] 93 % of control | [3] 90 % of control

CC(=O)Nc1ccc2ccccc2c1-c1c(NC(C)=O)ccc2ccccc12
inactive: [1] 87 % of control | [3] 95 % of control

O=C1CC(=O)N(C2OC(CO)C(O)C2O)C(=O)N1 (stereo unspecified)
inactive: dose: 12.5 mg/kg/injection, schedule: Q01DX005 (ip), vehicle: water 94 % of control | dose: 25.0 mg/kg/injection, schedule: Q01DX005 (ip), vehicle: water 100 % of control | dose: 50.0 mg/kg/injection, schedule: Q01DX005 (ip), vehicle: water 106 % of control | dose: 100.0 mg/kg/injection, schedule: Q01DX005 (ip), vehicle: water 106 % of control | dose: 200.0 mg/kg/injection, schedule: Q01DX005 (ip), vehicle: water 105 % of control | dose: 400.0 mg/kg/injection, schedule: Q01DX005 (ip), vehicle: water 100 % of control
